Measured values reported in US5618809A, “Indolocarbazoles from saccharothrix aerocolonigenes copiosa subsp. nov SCC 1951 ATCC 53856” (Schering Corporation, priority 1995, dated 1997).

What was measured:
PKC (from rats' brains) = conditions: cited from earlier work
PKC = PKC inhibition (partially purified PKC, Ca2+, phosphatidylserine and 1-oleoyl-2-acetylglycerol, histone III-S substrate); format: biochemical, rat
Source text: (§1) The PKC was partially purified from rat brain and assayed in the presence of its activators: Ca^2+, phosphatidylserine and 1-oleoyl-2-acetylglycerol. Histone III-S was used as phosphate acceptor. The MLCK was native enzyme from chicken gizzard fully activated by calmodulin. Kemptamide was used as phosphate acceptor.

MLCK = target: T1, MLCK (Gallus gallus, UniProt P11799); test: MLCK inhibition (native enzyme from chicken gizzard, calmodulin activated, Kemptamide substrate); format: biochemical
T1 construct: Kemptamide as substrate
Source text: as §1

SHR and DOC-rats = conditions: cited from earlier work

SMILES | PKC inhibitory potency (in words) (PKC (from rats' brains)) | potency at PKC (in words) (PKC) | potency at MLCK (in words) (MLCK) | lowering of blood pressure (in words) (SHR and DOC-rats)
CC12OC(CC1(O)C(=O)O)n1c3ccccc3c3c4c(c5c6ccccc6n2c5c31)CNC4=O (centres unmarked) [Example K252b] | inhibitory to PKC (from rats' brains) with good potency, in the nanomolar range |  |  | 
COC(=O)[C@@]1(O)C[C@H]2O[C@]1(C)n1c3ccccc3c3c4c(c5c6ccccc6n2c5c31)C(=O)NC4 [Example K-252a] | inhibitory to PKC (from rats' brains) with good potency, in the nanomolar range | nanomolar potencies | nanomolar potencies | lowers blood pressure in SHR and DOC-rats
